Converted amounts (≈) assume the structure as drawn. Like-named read-outs stand apart in the source and are kept apart here.
What was measured:
[1] = test system: M.tb Erdman; experiment: Broth microdilution MIC with Alamar blue endpoint (MABA) / OD600; type: cell-based, Mycobacterium tuberculosis
[2] = test system: M.tb H37Rv; experiment: as above; type: cell-based, Mycobacterium tuberculosis
[3] = test system: African green monkey kidney (Vero; ATCC # CCL81) cells; experiment: In vitro cytotoxicity (PrestoBlue cell viability), Vero; type: cell-based
[4] = test system: human hepatocyte/liver (HepG2; ATCC #HB8065) cells; experiment: In vitro cytotoxicity (PrestoBlue cell viability), HepG2; type: cell-based
[5] = test system: M. Tuberculosis Erdman or H37Rv vs VERO or HepG2 cells; experiment: Selectivity Index (mammalian cell IC50 / bacterial MIC); design: species or system Mycobacterium tuberculosis
[6] = Mycobacterium tuberculosis, ERDMAN; read-out: Mycobacterium tuberculosis MIC, Erdman
[7] = Mycobacterium tuberculosis, H37RV; read-out: Mycobacterium tuberculosis MIC, H37Rv
[8] = Chlorocebus sabaeus, Vero, 72 h; read-out: Cell viability IC50, VERO
[9] = Homo sapiens, HepG2, 72 h; read-out: Cell viability IC50, HepG2
[10] = Mycobacterium tuberculosis, ERDMAN, read-out: Mycobacterium tuberculosis MIC, Erdman
[11] = Chlorocebus sabaeus, Vero, 72 h, read-out: Cell viability IC50, VERO
[12] = Homo sapiens, HepG2, 72 h, read-out: Cell viability IC50, HepG2
[13] = Mycobacterium tuberculosis, H37RV, read-out: Mycobacterium tuberculosis MIC, H37Rv

CN(C)CCCNc1ccc(-c2ccc(N3C[C@H](CO)OC3=O)cc2F)cn1 [AKG-14]
MIC [1, 6]: 8 µg/mL (≈ 20.6 µM) | MIC [2, 7]: 8 µg/mL (≈ 20.6 µM)

Cl.NCCn1nnc(-c2ccc(-c3ccc(N4C[C@H](CO)OC4=O)cc3F)cn2)n1 [AKG-23]
MIC [1, 6]: 0.25 µg/mL | IC50 [3, 8]: > 250 µg/mL | IC50 [4, 9]: 7.3 µg/mL | Selectivity Index (SI) Erd/HepG2 [5]: 29.2 | Selectivity Index (SI) Erd/VERO [5]: >1000 | MIC [2, 7]: 0.25 µg/mL

Cl.Cn1nnc(-c2ccc(-c3ccc(N4C[C@H](CNC(=O)CCN)OC4=O)cc3F)cn2)n1 [AKG-19]
MIC [1, 6]: > 8 µg/mL | IC50 [3, 8]: > 250 µg/mL | IC50 [4, 9]: 42.2 µg/mL | Selectivity Index (SI) Erd/HepG2 [5]: 5.3 | Selectivity Index (SI) Erd/VERO [5]: >31.3 | MIC [2, 7]: > 8 µg/mL

CCN(CC)C[C@H]1CN(c2ccc(-c3ccc(-c4nnn(C)n4)nc3)c(F)c2)C(=O)O1 [AKG-2]
MIC [1, 6]: > 8 µg/mL | IC50 [3, 8]: 67.9 µg/mL (≈ 160 µM) | IC50 [4, 9]: 24.5 µg/mL (≈ 57.6 µM) | Selectivity Index (SI) Erd/HepG2 [5]: <3.1 | Selectivity Index (SI) Erd/VERO [5]: <8.5 | MIC [2, 7]: > 8 µg/mL

COc1nc2ccc(Br)cc2cc1[C@@H](c1ccccc1)[C@@](O)(CCN(C)C)c1cccc2ccccc12 [Bedaquiline, reference compound]
MIC ([1]; Mycobacterium tuberculosis; M. tuberculosis Erdman / H37Rv, strains not separated; read-out: MIC): 0.125 µg/mL (≈ 0.225 µM)

CCN(CC)CCCn1nnc(-c2ccc(-c3ccc(N4C[C@H](CN)OC4=O)cc3F)cn2)n1 [AKG-31]
Selectivity Index (SI) Erd/HepG2 [5]: 26.4 | Selectivity Index (SI) Erd/VERO [5]: 223.0

Cl.Cn1nnc(-c2ccc(-c3ccc(N4C[C@H](CNC(=O)CCCN)OC4=O)cc3F)cn2)n1 [AKG-18]
Mycobacterium tuberculosis MIC, Erdman [1]: 2 µg/mL | Cell viability IC50, VERO ([3]; 72 h): >250 µg/mL | Cell viability IC50, HepG2 ([4]; 72 h): 9.5 µg/mL | Mycobacterium tuberculosis MIC, H37Rv [2]: 2 µg/mL

CN(C)CCC1CCN(C[C@H]2CN(c3ccc(-c4ccc(-c5nnn(C)n5)nc4)c(F)c3)C(=O)O2)CC1 [AKG-6]
MIC [1, 6]: > 8 µg/mL | IC50 [3, 8]: 27.4 µg/mL (≈ 53.9 µM) | IC50 [4, 9]: 15.5 µg/mL (≈ 30.5 µM) | Selectivity Index (SI) Erd/HepG2 [5]: <1.9 | Selectivity Index (SI) Erd/VERO [5]: 3.4 | MIC [2, 7]: > 8 µg/mL

CCN(CC)CCOC[C@H]1CN(c2ccc(-c3ccc(-c4nnn(C)n4)nc3)c(F)c2)C(=O)O1 [AKG-7]
MIC [1, 6]: > 8 µg/mL | IC50 [3, 8]: 104 µg/mL (≈ 221 µM) | IC50 [4, 9]: 11.2 µg/mL (≈ 23.9 µM) | Selectivity Index (SI) Erd/HepG2 [5]: <1.4 | Selectivity Index (SI) Erd/VERO [5]: 13.0 | MIC [2, 7]: > 8 µg/mL

Cl.NCCCn1nnc(-c2ccc(-c3ccc(N4C[C@H](CO)OC4=O)cc3F)cn2)n1 [AKG-27]
MIC [1, 6]: 0.5 µg/mL | IC50 [3, 8]: 5.6 µg/mL | IC50 [4, 9]: 9 µg/mL | Selectivity Index (SI) Erd/HepG2 [5]: 18.0 | Selectivity Index (SI) Erd/VERO [5]: 11.2 | MIC [2, 7]: 0.5 µg/mL

CCN(CC)CCn1nnc(-c2ccc(-c3ccc(N4C[C@H](CO)OC4=O)cc3F)cn2)n1 [AKG-24]
MIC [1, 6]: 1 µg/mL (≈ 2.2 µM) | IC50 [3, 8]: 31.3 µg/mL (≈ 68.7 µM) | IC50 [4, 9]: 11.4 µg/mL (≈ 25 µM) | Selectivity Index (SI) Erd/HepG2 [5]: 11.4 | Selectivity Index (SI) Erd/VERO [5]: 31.3 | MIC [2, 7]: 1 µg/mL (≈ 2.2 µM)

CN(C)CCC1CCN(c2ccc(-c3ccc(N4C[C@H](CO)OC4=O)cc3F)cn2)CC1 [AKG-11]
MIC [1, 6]: 4 µg/mL (≈ 9.04 µM) | IC50 [3, 8]: 31.9 µg/mL (≈ 72.1 µM) | IC50 [4, 9]: 42.8 µg/mL (≈ 96.7 µM) | Selectivity Index (SI) Erd/HepG2 [5]: 10.7 | Selectivity Index (SI) Erd/VERO [5]: 8.0 | MIC [2, 7]: 4 µg/mL (≈ 9.04 µM)

CN(C)CCNc1ccc(-c2ccc(N3C[C@H](CO)OC3=O)cc2F)cn1 [AKG-12]
MIC [1, 10]: 4 µg/mL (≈ 10.7 µM) | IC50 [3, 11]: 89.1 µg/mL (≈ 238 µM) | IC50 [4, 12]: 67.6 µg/mL (≈ 181 µM) | Selectivity Index (SI) Erd/HepG2 [5]: 16.9 | Selectivity Index (SI) Erd/VERO [5]: 22.3 | MIC [2, 13]: 4 µg/mL (≈ 10.7 µM)

CN(C)C[C@H]1CN(c2ccc(-c3ccc(-c4nnn(C)n4)nc3)c(F)c2)C(=O)O1 [AKG-1]
MIC [1, 6]: > 8 µg/mL | IC50 [3, 8]: 113 µg/mL (≈ 283 µM) | IC50 [4, 9]: 116 µg/mL (≈ 292 µM) | Selectivity Index (SI) Erd/HepG2 [5]: <14.5 | Selectivity Index (SI) Erd/VERO [5]: <14.1 | MIC [2, 7]: > 8 µg/mL

CN(C)CCCn1nnc(-c2ccc(-c3ccc(N4C[C@H](CO)OC4=O)cc3F)cn2)n1 [AKG-25]
MIC [1, 6]: 1 µg/mL (≈ 2.27 µM) | IC50 [3, 8]: 182 µg/mL (≈ 412 µM) | IC50 [4, 9]: 9.4 µg/mL (≈ 21.3 µM) | Selectivity Index (SI) Erd/HepG2 [5]: 9.4 | Selectivity Index (SI) Erd/VERO [5]: 182.0 | MIC [2, 7]: 1 µg/mL (≈ 2.27 µM)

CCN(CC)CCNc1ccc(-c2ccc(N3C[C@H](CO)OC3=O)cc2F)cn1 [AKG-13]
MIC [1, 6]: > 8 µg/mL | IC50 [3, 8]: 93.9 µg/mL (≈ 233 µM) | IC50 [4, 9]: 31.8 µg/mL (≈ 79 µM) | Selectivity Index (SI) Erd/HepG2 [5]: <4.0 | Selectivity Index (SI) Erd/VERO [5]: <11.7 | MIC [2, 7]: > 8 µg/mL

CCN(CC)CCNC[C@H]1CN(c2ccc(-c3ccc(-c4nnn(C)n4)nc3)c(F)c2)C(=O)O1 [AKG-9]
MIC [1, 10]: > 8 µg/mL | IC50 [3, 11]: 139 µg/mL (≈ 297 µM) | IC50 [4, 12]: 28.1 µg/mL (≈ 60 µM) | Selectivity Index (SI) Erd/HepG2 [5]: <3.5 | Selectivity Index (SI) Erd/VERO [5]: <17.4 | MIC [2, 13]: > 8 µg/mL

CN(C)CCn1nnnc1-c1ccc(-c2ccc(N3C[C@H](CO)OC3=O)cc2F)cn1 [AKG-21]
MIC [1, 6]: > 8 µg/mL | IC50 [3, 8]: > 250 µg/mL | IC50 [4, 9]: 156 µg/mL (≈ 366 µM) | Selectivity Index (SI) Erd/HepG2 [5]: <19.5 | MIC [2, 7]: > 8 µg/mL

CCN(CC)CCCNC[C@H]1CN(c2ccc(-c3ccc(-c4nnn(C)n4)nc3)c(F)c2)C(=O)O1 [AKG-8]
MIC [1, 10]: > 8 µg/mL | MIC [2, 13]: > 8 µg/mL

Cl.Cn1nnc(-c2ccc(-c3ccc(N4C[C@H](CNC(=O)CCN)OC4=O)cc3F)cn2)n1 [AKG-17]
Mycobacterium tuberculosis MIC, Erdman [1]: 2 µg/mL | Cell viability IC50, VERO ([3]; 72 h): >250 µg/mL | Cell viability IC50, HepG2 ([4]; 72 h): 37.3 µg/mL | Mycobacterium tuberculosis MIC, H37Rv [2]: 2 µg/mL

CCN(CC)CCC(=O)OC[C@H]1CN(c2ccc(-c3ccc(-c4nnn(C)n4)nc3)c(F)c2)C(=O)O1 [AKG-20]
MIC [1, 6]: 0.5 µg/mL (≈ 1 µM) | IC50 [3, 8]: > 250 µg/mL | IC50 [4, 9]: 15.1 µg/mL (≈ 30.3 µM) | Selectivity Index (SI) Erd/HepG2 [5]: 30.2 | Selectivity Index (SI) Erd/VERO [5]: >500 | MIC [2, 7]: 0.5 µg/mL (≈ 1 µM)

CCN(CC)CCCn1nnc(-c2ccc(-c3ccc(N4C[C@H](CO)OC4=O)cc3F)cn2)n1 [AKG-26]
MIC [1, 6]: 2 µg/mL (≈ 4.26 µM) | IC50 [3, 8]: 128 µg/mL (≈ 274 µM) | IC50 [4, 9]: 9 µg/mL (≈ 19.2 µM) | Selectivity Index (SI) Erd/HepG2 [5]: 4.5 | Selectivity Index (SI) Erd/VERO [5]: 64.3 | MIC [2, 7]: 2 µg/mL (≈ 4.26 µM)

Source: patent publication US20230348447A1, “OXAZOLIDINONE COMPOUNDS, LIPOSOME COMPOSITIONS COMPRISING OXAZOLIDINONE COMPOUNDS AND METHOD OF USE THEREOF” (priority 2020, published 2023)
